From patent publication US20210317111A1, “NOVEL MEDICAMENT FOR TREATING INFLAMMATORY BOWEL DISEASE” (OTSUKA PHARMACEUTICAL CO., LTD., priority 2018, published 2021)
Values after ≈ are worked out from the molar mass of the structure shown.

Key:
[1] = tested on: Mycobacterium avium subspecies paratuberculosis (MAP); test: antibacterial activity (MIC), broth microdilution method; format: cell-based; conditions: 336 h
Procedure: The chronic enterocolitis of ruminants which is caused by Mycobacterium avium subspecies paratuberculosis (MAP) is similar to Crohn's disease. […] Thus, the antibacterial activity of the present compound against MAP was evaluated. The used comparative drugs for the present compound were rifaximin (RFX), ciprofloxacin (CPFX), metronidazole (MTZ), clarithromycin (CAM), rifabutin (RBT), and clofazimine (CFZ).
The antibacterial activity (minimum inhibitory concentration (MIC)) was assayed by broth microdilution method which is based on Clinical and laboratory standards institute (CLSI).
The 5 strains of MAP were inoculated onto Middlebrook 7H9 agar containing 10% dubos oleic albumin complex (OADC), Tween 80 (0.5 g/L), mycobactin J (2 mg/L), and 1.5% agar, and pre-cultured at 37° C. under an aerobic condition for 14 days. After the pre-culture, the bacterial cell was scraped out from the agar, and prepared to the turbidity of 0.5 Mcfarland standard using Middlebrook 7H9 broth containing 10% dubos oleic albumin complex (OADC), Tween 80 (0.5 g/L), and mycobactin J (2 mg/L)]. The 10-fold diluted solution of the bacterial suspension was inoculated onto Middlebrook 7H9 broth 96-well plate which contains the present compound or any one of the comparative drugs, and incubated at 37° C. under an aerobic condition for 14 days.
After the incubation, the bacterial growth in each well of the 96-well plate was visually checked. The minimum concentration at which the bacterial growth was not observed, compared with the result of the well containing neither present compound nor comparative drug was determined as MIC of the present compound or each comparative drug against each test bacterium.

TNF-α = TNF-α production by stimulated PBMC (ELISA); format: cell-based; conditions: stimulated human PBMC, 3 days, culture supernatant
Procedure: (§1) Peripheral blood (30 mL) derived from a healthy adult was layered on a lymphocyte tube Leucosep™ containing Lymphoprep (15 mL), and the tube was centrifuged at room temperature at 2000 rpm for 20 minutes. After the centrifugation, the upper 5 mL of the plasma was removed from the peripheral blood mononuclear cell (PBMC) layer with an aspirator, and the left solution containing the PBMC layer was collected into a new 50 mL tube. To the collected solution was added an equal amount of Hanks' balanced salt solution (HBSS) to dilute the cell suspension. The diluted solution was centrifuged at 4° C. at 1800 rpm for 5 minutes. After the centrifugation, the supernatant was discarded, the rest was suspended in 10 mL of AIM-V. The suspension was centrifuged at 4° C. at 1500 rpm for 5 minutes, and the supernatant was discarded. The same washing process was repeated one more time. After the centrifugation, the supernatant was discarded, and the obtained cell was suspended in 5% FBS-containing AIM-V to be used in the following tests.
(§2) To 96-well round-bottom plate were added 100 μL of medium containing the compound, 100 μL (0.5×10^5 beads) of anti-CD3/CD28/CD2-loaded bead suspension (Miltenyi), and 100 μL (1×10^5 cells) of PBMC suspension. The mixture was incubated at 37° C. in 5% CO2 for 3 days.

IFN-γ = IFN-γ production by stimulated PBMC (ELISA); format: cell-based; conditions: stimulated human PBMC, 3 days, culture supernatant
Procedure: as §1, §2

Bacteroides spp = test: antibacterial activity against intestinal bacteria (MIC); format: cell-based
Procedure: (§3) The antibacterial activity of the present compound was examined against Bacteroides spp and Streptococcus spp, which are enterobacteria.
(§4) The antibacterial activity (minimum inhibitory concentration (MIC)) was assayed by agar plate dilution method or broth microdilution method, which is based on Clinical and laboratory standards institute (CLSI). Specifically, the experiment was performed as follows. The compound of the present invention or the control substance was prepared by 2-fold serial dilution, respectively, and test strains were inoculated on the medium suitable for each test strain. After the inoculation followed by incubation at 37° C. under aerobic or anaerobic conditions, the minimum concentration at which colony formation was not observed in agar plate dilution method, or the minimum concentration without turbidity of the culture medium (the bacterial growth was not observed) in broth microdilution method was determined as MIC.

Streptococcus spp = test: as above; format: cell-based
Procedure: as §3, §4

[2] = tested on: activated T cell (CD25+ cell); test: T-cell activation (CD25+ cells) in anti-CD3/CD28/CD2 bead-stimulated PBMC; format: cell-based, human; conditions: both CD4-positive and CD8-positive T-cell
Procedure: as §1, §2

[3] = tested on: naive T cell transfer model of colitis; test: naive T cell transfer model of colitis (Crohn's disease mouse model), histological scoring of large intestine; format: in vivo
Source text: From spleen of Balb/c mouse, naive T cell (CD4+CD62L+CD44−) was isolated with antibody-coated magnetic beads. The isolated naive T cell (5×10^5 cells/mouse) was transplanted in abdominal cavity of SCID mouse which is a severe combined immunodeficiency animal. The present compound was orally administered to the mouse once a day at each dose defined in Table 1 below, from the first day of the transplantation for Test 1, or from the 2nd week after the transplantation for Test 2, until 5 weeks after the transplantation. [table] […] The anti-TNF-α antibody was intraperitoneally administered to the mouse twice a week at each dose defined in Table 2 below, from the 2nd week after the transplantation, for 2 weeks. [table] At 5th week for Tests 1 and 2, and at 4th week for Test 3, the large intestine was removed, and the length and weight of the large intestine were measured. In addition, the large intestine was fixed with formalin to carry out pathological analysis. From the removed large intestine, the anus part, the center part, and the cecal part were cut out each in about 0.5 cm, and each part was fixed with formalin. The paraffin block thereof was prepared, sliced, and subjected to H&E staining. The H&E stained slice was examined with a microscope to score it histologically. The histological scoring was carried out by scoring the inflammatory cell infiltrate, the Goblet cell loss, and the hyperplasia of mucosal epithelium, based on the standard (0-4) defined in Table 3 below. [table]

Cc1c(-c2cnc(N)c(C#N)c2)c(F)cc2c(=O)c(C(=O)O)cn(C3CC3)c12 [the present compound, 7-(6-amino-5-cyanopyridin-3-yl)-1-cyclopropyl-6-fluoro-1,4-dihydro-8-methyl-4-oxo-3-quinoline-carboxylic acid]
MIC [1]: 0.06 to 0.5 µg/mL (≈ 0.159 to 1.32 µM)
cytokine production (TNF-α) (TNF-α): decreased
cytokine production (IFN-γ) (IFN-γ): decreased
antibacterial activity (Bacteroides spp): strong antibacterial activities
antibacterial activity (Streptococcus spp): strong antibacterial activities
inhibitory activity on T cell activation compared with prednisolone ([2]; 30 μM): higher inhibitory activity than prednisolone
rate of activated T cell ([2]; 6 people's human PBMC, 3 days): decreased
histological score (Test 1, preventive effect) ([3]; 2.5 mg/kg or more, oral once a day from first day of transplantation until 5 weeks, vs solvent control): inhibited the increase of the histological score
histological score (Test 2, therapeutic effect) ([3]; 5 mg/kg or more, oral once a day from 2nd week after transplantation until 5 weeks, vs solvent control): significantly inhibited the increase of the histological score
histological score (Test 3, comparative study) ([3]; from 2nd week after transplantation for 2 weeks, present compound, CPFX, RFX oral once a day 10 mg/kg, antibody 25 mg/kg i.p. twice a week, 4th week): potent inhibitory effect at the same level as Normal group
